# Measurements from patent publication US10112974B2, “Method for the production of 18F-labeled active esters and their application exemplified by the preparation of a PSMA-specific PET-tracer” (Max-Planck-Gesellschaft zur Foerderung der Wissenschaften …, priority 2014, dated 2018).
# Columns and labels:
# [1] = system: PSMA positive prostate tumor xenografts; details: PSMA positive prostate tumor xenografts in mice; clear delineation; cited from earlier work
# [2] = system: LNCaP-C4-2 prostate tumor cells
# Protocol: Five 8-week-old male C.B-Igh-1b/IcrTac-Prkdcscid mice (Taconic) were injected subcutaneously in the neck region with 4×10^6 LNCaP-C4-2 prostate tumor cells. […] The first PET measurement was immediately followed by a CT scan during which the animal was left in the same position. Both tracers were injected i.v. through the lateral tail vein ([^18F]1-10: 21-32 MBq; [^68Ga]HBED-CC: 19-33 MBq, on two consecutive days). Emission data collection started 60 min after injection and lasted 45 min. Image reconstruction was performed using Fourier rebinning and an ordered subset expectation maximization (3D-OSEM) procedure, yielding images with voxel sizes of 0.78×0.78×0.80 mm. Image analysis was performed with VINCI 4.0 (MPI for Metabolism Research, Cologne, Germany). Tracer uptake in the tumor as well as liver, kidney, and background was determined using volumes of interest (VOIs) covering the respective structure. Significant differences were assessed using two-way repeated measures ANOVA with factors “structure” and “tracer”, followed by Holm-Sidak post hoc comparison. Tumor sizes were measured by drawing accurate tumor VOIs in the CT images, and extracting VOI volume. Tracer uptake was correlated tumor size using the Pearson correlation test.
# [3] = Storage and solution stability of iodonium iodide 22; assay type: physicochemical
structure (smiles),measurement,setting,value
"O=C(O)CCC(NC(=O)NC(CCCCNC(=O)c1ccc([18F])nc1)C(=O)O)C(=O)O (stereo not drawn) [[^18F]1-10, 2-(3-{1-carboxy-5-[(6-[^18F]fluoro-pyridine-3-carbonyl)-amino]-pentyl}-ureido)-pentanedioic acid]",tumor to background ratio,[1],excellent
same,tumor tracer uptake,"[2]; PET 60 min after i.v. injection, 45 min emission, LNCaP-C4-2 xenograft mice, tumor VOI",1.4±1.7 % ID/g
same,Signal-to-noise ratio (tumor versus background),"[2]; PET 60 min after i.v. injection, LNCaP-C4-2 xenograft mice",5.9±4.2
same,uptake in the kidney,"[2]; PET 60 min after i.v. injection, kidney VOI",3.0±1.9 % ID/g
same,liver uptake,"[2]; PET 60 min after i.v. injection, liver VOI",1.1±0.5 % ID/g
same,imaging characteristics compared to [^68Ga]HBED-CC (50),[2]; PSMA^+ PCa mice model,nearly identical
same,kidney uptake compared to [^68Ga]HBED-CC (50),[2]; PSMA^+ PCa mice model,much lower
"COc1ccc([I+]c2ccc(C(=O)Oc3c(F)c(F)cc(F)c3F)cc2)cc1.[I-] [Compound 22, (4-Methoxyphenyl) [4-(2,3,5,6-tetrafluorophenoxycarbonyl)phenyl]iodonium iodide]",stability in solution,"[3]; in solution, especially at elevated temperatures, in DMF or DMSO already at ambient temperature",unstable
same,storage stability,[3]; stored at 4° C. under argon,≥ 4 months
